Data from patent US11197856B2, “Bicyclic compounds and methods for their use in treating autism” (priority 2013, dated 2021).

Key:
MeCP2 deficient mice = assay: Survival of MeCP2 deficient mice (Rett Syndrome model); conditions: for survival: MeCP2 deficient mice
Description: We treat hemizygous MeCP2(1lox) male mice with 20 mg/kg/day of cG-2-AllylP or saline, (0.01% BSA, n=15 per group in survival experiment and n=20 in the LTP experiment). The treatments are administered intraperitoneally from 4 weeks after birth. For the survival experiments the treatment is maintained through the course of the experiment. For the LTP experiment the mice are treated until week 9 when they are used for slice preparation.
MeCP2 deficient mutant mice develop RTT symptoms at about 4-6 weeks of age and […] (Chen et al., 2001. Nat Genet 27: 327-331). We compare the survival of the wild type controls and the MeCP2 deficient animals in vehicle- and cG-2-AllylP-treated groups. Survival is measured weekly from start of treatment (4 weeks) and used to produce Kaplan-Meier survival curves to show the proportion of mice that survive (y axis) at each weekly interval (x axis).
For the survival measurements, the nocturnal activity analysis and the immunoblot analysis, cG-2-AllylP supplied by Neuren Pharmaceuticals Limited is administered daily via intra-peritoneal injections (20 mg/kg, vehicle=saline, 0.01% BSA). The treatment starts at PI 5 and is maintained throughout the course of the experiments. For intracellular physiology experiments, the mice are injected daily with cG-2-AllylP (20 mg/kg body weight, vehicle=saline, 0.01% BSA) for 2 weeks, from P15 to P28-P32 when they are used for acute slice preparation. For optical imaging experiments, mice are injected with cG-2-AllylP (20 mg/kg body weight, vehicle=saline, 0.01% BSA) daily from the day of the lid suture to the day of imaging.
Therefore, we administer cG-2-AllylP orally to MeCP2 deficient mice. Briefly, an aqueous solution or other composition containing a pharmaceutically effective amount of cG-2-AllylP (20 or 80 mg/kg per animal) is administered daily.

[1] = test system: hippocampal LTP in MeCP2 deficient mice; assay: Hippocampal long-term potentiation (fEPSP slope) in MeCP2 deficient mice; assay type: in vivo; conditions: MeCP2 deficient mice at 9 weeks; vs saline
Excerpt: MeCP2 deficient mice have been previously reported to suffer from functional and ultrastructural synaptic dysfunction, significant impairment of hippocampus-dependent memory and hippocampal long-term potentiation (LTP) (Moretti et al. The Journal of Neuroscience. 2006. 26(1):319-327). To test the effects of the cG-2-AllylP treatment on synaptic function in the RTT model we compare hippocampal LTP in both vehicle and cG-2-AllylP-treated animals at 9 weeks of age. To do so, we measure the slope of the fEPSP as a % of baseline potential in neurons in slices of hippocampus from MeCP2 deficient mice treated with either saline or cG-2-AllylP.

[2] = test system: neurons in the CA3 region of the hippocampus; assay: Neuron soma size in the hippocampus; assay type: in vivo, mice
Description: We also measure the effect of cG-2-AllylP treatment on neuron soma size in the hippocampus. Mice are treated with cG-2-AllylP as described above for locomotor activity.

[3] = test system: hippocampal slices of Shank3-deficient mice; assay: Shank3-deficient mice: hippocampal slice electrophysiology; assay type: in vivo
Description: 1 to 3 month old wild-type and heterozygous Shank3-deficient mice are divided into 4 treatment groups: placebo treated wild-type, placebo treated Shank3-deficient group and two Shank3-deficient cG-2-AllylP treated groups. The animals are given placebo (water) or cG-2-AllylP formulated in water administered orally, b.i.d for 14 days. cG-2-AllylP is administered at two doses: 15 or 60 mg/kg.
Post-mortem, acute hippocampal slices (350 μm) are prepared from mice using a tissue chopper. Slices are maintained and experiments are conducted at 32° C. Slices are perfused with Ringer's solution containing (in mM): NaCl, 125.0; KCl, 2.5; MgSO4, 1.3; NaH2PO4, 1.0; NaHCO3, 26.2; CaCl2, 2.5; glucose, 11.0. The Ringer's solution is bubbled with 95% 02/5% CO2, at 32° C., during extracellular recordings (electrode solution: 3 M NaCl). Slices are maintained for 1 hr prior to establishment of a baseline of field excitatory postsynaptic potentials (fEPSPs) recorded from stratum radiatum in area CA1, evoked by stimulation of the Schaffer collateral-commissural afferents (100 μs pulses every 30 s) with bipolar tungsten electrodes placed into area CA3. Test stimulus intensity is adjusted to obtain fEPSPs with amplitudes that are one-half of the maximal response. The EPSP initial slope (mV/ms) is determined from the average waveform of four consecutive responses. Input-output (I/O) curves are generated by plotting the fEPSP slope versus fiber volley amplitude in low-Mg^2+ (0.1 mM) solution. AMPA receptor-mediated and NMDA receptor-mediated I/O relationships are measured in the presence of ionotropic glutamate receptor antagonists: […] APV (50 μM) and 6-cyano-7-nitroquinoxaline-2,3-dione CNQX (100 μM). Paired-pulse responses are measured with interstimulus intervals of 10 to 200 ms, and are expressed as the ratio of the average responses to the second stimulation pulse to the first stimulation pulse. […]

[4] = test system: growth-associated protein-43 (GAP-43); assay: PBBI in rats: GAP-43 immunohistochemistry in hippocampus; assay type: in vivo, Sprague-Dawley rats; conditions: 30 mg/kg oral once daily
Description: The methods for producing PBBI in this Example is the same as described above for Example 26. Adult Sprague-Dawley rats were randomly assigned into three groups: sham (craniotomy only), PBBI+vehicle (i.e. H2O), and PBBI+cG-2-AllylP. cG-2-AllylP (or vehicle) was administered via oral gavage at 30 mg/kg at 30 min post-injury and continued once daily thereafter for 7, 14 or 28 days. At each treatment endpoint, rats were perfused and brains were processed for histological analysis (n=5-6/group/time-point). For detection of axonal sprouting, immunohistochemical detection of growth-associated protein-43 (GAP-43) was employed. Synaptogenesis was determined by immunohistochemistry for synaptophysin (SYN). For histological quantification, the integrated density in the hippocampal region was determined using NIH ImageJ software.

For `C=CC[C@]12CCCN1C(=O)CNC2=O` [cG-2-AllylP, (8aS)-Allyl-hexahydropyrrolo[1,2-a]pyrazine-1,4-dione], the life expectancy (MeCP2 deficient mice; MeCP2-/y mice, 20 mg/kg daily intra-peritoneal from P15) was “increase in life expectancy”, the survival (MeCP2 deficient mice; 20 mg/kg/day intraperitoneally from 4 weeks) was “survive substantially longer than saline-treated mice” and the survival (MeCP2 deficient mice; oral, 20 or 80 mg/kg daily) was “survival is increased substantially”. The safety concerns (MeCP2 deficient mice; mecp2 mice, 20 mg/kg/day intraperitoneally) was “No safety concerns are raised”, the “slope of fEPSP (hippocampal LTP)” value [1] was “increases the slope of fESPS” and the average soma size ([2]; KO animals) was “increases average soma size in KO animals”. The soma size ([2]; wild type animals) was “little or no effect on soma size in wild type animals”, the “hippocampal long-term potentiation (LTP) and its maintenance” value ([3]; both Shank3-deficient groups, vs placebo) was “increases hippocampal long-term potentiation (LTP) and its maintenance” and the “AMPA receptor-mediated field potentials” value ([3]; both heterozygous groups, 15 or 60 mg/kg) was “normalizes the AMPA receptor-mediated field potentials”. The “average slope of I/O function” value ([3]; both heterozygous groups, vs placebo treated Shank3-deficient group) was “increase in the average slope of I/O function”, the “injury-induced reduction in GAP-43 expression” value ([4]; 7d or 14d post-PBBI) was “no effect on injury-induced reductions” and the “PBBI-induced reduction in GAP-43 expression” value ([4]; 28 days post-injury) was “attenuated PBBI-induced reductions”.
